# Measurements taken from patent US10202349B2, “Asymmetric bis-acridines with antitumour activity and their uses” (POLITECHNIKA GDAŃSKA, priority 2015, dated 2019).
# pEC50: −log10 of the molar value.
# How the values were obtained:
# BXPC 3 = test: Anti-neoplasmic activity against xenograft in hairless mice; type: in vivo
# Protocol: (§1) For this, we selected 26 bis-acridines, mainly on the basis of the cytotoxic activity. We performed 34 series of experiments evaluating the anti-neoplasmic activity on xenografts in hairless mice against eleven neoplasms of human origin from the determination of the cytotoxic activity of bis-acridines (table 4). The tumours were injected subcutaneously to hairless mice of 5-weeks, female Crl:Nu-Foxnlnu, at a rate of 5×10^6 cells per mouse. After attaining a tumour of about 100 mm^3 or 200 mm^3 in depending on the neoplasm and its take this was 8 or even 30 days, and began therapy. On the day therapy was initiated, we randomised the animals and divided them into groups. Test groups were from 6 to 8 animals, and controls had from 8 to 14 animals. Each compound was tested at three differentiated doses.
# (§2) The preparations were administered intravenously (i.v.) twice weekly for 4 weeks (thrice weekly for rapidly growing neoplasms). In several series, we used intraperitoneally (i.p.) administration in the same scheme. […] The therapeutic efficacy of the tested formulations was evaluated by measuring tumour size (length and width measurements of the tumour on the basis of the calculated tumour volume). Tumours were measured twice weekly for a period of about 30 days for fast-growing neoplasms, as well as about 60 days for the slow-growing neoplasms. The tumour volume in the treated groups compared with the control group. On this basis, inhibition of tumour growth was calculated using the following formula: Tumour growth inhibition TGI [%]=100−(ΔVT/ΔVC×100) Where ΔVT—is mean the tumour volume in animals in the group treated at the given day of treatment, minus the mean tumour volume in animals at the date of commencement of therapy. ΔVC is mean tumour volume in animals in the control group on a given day of treatment minus the average tumour volume of animals on the date of commencement of therapy. The results of the tests of anti-neoplasmic activity conducted in xenografts of human-origin neoplasms in mice are shown in Table 5.
# (§3) The result above was accepted only in the case that the dose administered in all animals or more than half of the animals that survived to the end of the experiment. In addition, the evaluation was the day that the administration of the preparation was already completed: for the fast-growing neoplasms (eg. HCT116) this was in the days from 15 to 26, while for slow-growing neoplasms (eg. Panc 1) on a day from 34 to 60. […] In addition, the maximum inhibition of neoplasms could be identified in the day, in which there were no factors that could change the value TGI value.
# (§4) Such factors may include: a significant decrease in body weight, the appearance of observable toxaemia, excessive rate of tumour growth: tumours in excess of 2000 mm^3 and all animals alive on that day.
# MDA MB 231 = test: as above; type: in vivo
# Protocol: as §1, §2, §3, §4
# PANC 1 = test: as above; type: in vivo
# Protocol: as §1, §2, §3, §4
# HCT-116 = test: Cytotoxic activity in vitro, SRB; type: cell-based, human
# Protocol: (§5) Cytotoxic activity tests in-vitro. A measure of the cytotoxic activity of bis-acridines are the EC50 (concentration of studied compounds at which 50% inhibition of proliferation of tumorous is observed) of the evaluated compounds that inhibit the growth of 50% of cells in relation to a control. The cytotoxic activity of the compounds was determined using SRB, recommended by the US National Cancer Institute (USA). As the spectrum of 13 human origin neoplasms in bis-acridine screening studies, we used the following: HT 29 [CRC], HCT 116 [CRC], H 460 [lung cancer], MDA MB 231 [breast cancer], MCF-7 [breast cancer], UM UC3 [bladder cancer], PC 3 [prostate cancer], DU 145 [ prostate cancer], Panc-1 [pancreatic cancer], Mia Pa Ca 2 [pancreatic cancer], BXPC 3 [pancreatic cancer], AsPC1 [pancreatic cancer], Capan-2 [pancreatic cancer]. […] The DU-145 results were substantially a basis for selecting compounds and neoplasms for screening. The next neoplasms most sensitive to the cytotoxic activity of bis-acridines was the CRC HCT-116, as well as breast cancer MBA-MB-231. […] The cytotoxic activity of the remaining bis-acridines is significant or high (EC50 in the range from 1 to 0.04 μM). […] Panc-1, MiaPaCa-2 and Capan-2 are more sensitive, whereas for AsPC-1 and BxPC-3 this activity is at least an order of magnitude smaller.
# PANC-1 = test: Cytotoxic activity in vitro, SRB; type: cell-based, human
# Protocol: as §5
# MiaPaCa-2 = test: Cytotoxic activity in vitro, SRB; type: cell-based, human
# Protocol: as §5
# AsPC-1 = test: Cytotoxic activity in vitro, SRB; type: cell-based, human
# Protocol: as §5
# DU-145 = test: Cytotoxic activity in vitro, SRB; type: cell-based, human
# Protocol: as §5
# BxPC-3 = test: Cytotoxic activity in vitro, SRB; type: cell-based, human
# Protocol: as §5
# DU 145 = test: Anti-neoplasmic activity against xenograft in hairless mice; type: in vivo; settings: series 18, i.v., single 2 mg/kg, total 16 mg/kg, day 33
# Protocol: as §1, §2, §3, §4
# Mia Pa Ca 2 = test: as above; type: in vivo; settings: series 28, i.v., single 6 mg/kg, total 12 mg/kg, day 15, *at least half of animals did not survive
# Protocol: as §1, §2, §3, §4
# AsPC 1 = test: as above; type: in vivo; settings: series 23, i.p., single 2 mg/kg, total 16 mg/kg, day 39
# Protocol: as §1, §2, §3, §4
# Capan-2 = test: Cytotoxic activity in vitro, SRB; type: cell-based, human
# Protocol: as §5
# MCF-7 = test: Cytotoxic activity in vitro, SRB; type: cell-based, human
# Protocol: as §5
# MDA-MB-231 = test: Cytotoxic activity in vitro, SRB; type: cell-based, human
# Protocol: as §5
# HCT 116 = test: Anti-neoplasmic activity against xenograft in hairless mice; type: in vivo; settings: series 7, i.v., single 20 mg/kg, total 120 mg/kg, day 15
# Protocol: as §1, §2, §3, §4
# HT-29 = test: Cytotoxic activity in vitro, SRB; type: cell-based, human
# Protocol: as §5
# PC-3 = test: Cytotoxic activity in vitro, SRB; type: cell-based, human
# Protocol: as §5
# UM-UC-3 = test: Cytotoxic activity in vitro, SRB; type: cell-based, human
# Protocol: as §5
# H-460 = test: Cytotoxic activity in vitro, SRB; type: cell-based, human
# Protocol: as §5
Compound,pEC50 (HCT-116),pEC50 (PANC-1),pEC50 (MiaPaCa-2),pEC50 (AsPC-1),pEC50 (DU-145),pEC50 (BxPC-3),pEC50 (Capan-2),pEC50 (MCF-7),pEC50 (MDA-MB-231),other results
"Cc1ccc([N+](=O)[O-])c2c(NCCCN(C)CCCNc3ccc4ncn5c6ccccc6c(=O)c3c45)c3ccccc3nc12 [C-2053, 9-{N-[(imidazo[4,5,1-de]-acridin-6-on-5-yl)aminopropyl]-N-methylaminopropylamino}-4′-methyl-1′-nitroacridine]",7.19,7.01,7.06,6.75,7.19,6.65,–,–,–,"TGI [%] [100 − (ΔVT/ΔVC × 100] (BXPC 3; series 25, i.v., single 20 mg/kg, total 160 mg/kg, day 36): 84%; TGI [%] [100 − (ΔVT/ΔVC × 100] (BXPC 3; series 33, i.v., single 20 mg/kg, total 160 mg/kg, day 32, *at least half of animals did not survive): 47* %; TGI [%] [100 − (ΔVT/ΔVC × 100] (MDA MB 231; series 34, i.v., single 15 mg/kg, total 120 mg/kg, day 32): 62%; TGI [%] [100 − (ΔVT/ΔVC × 100] (PANC 1; series 24, i.v., single 15 mg/kg, total 120 mg/kg, day 37): 64%; TGI [%] [100 − (ΔVT/ΔVC × 100] (PANC 1; series 26, i.v., single 20 mg/kg, total 160 mg/kg, day 56): 69%"
"O=c1c2ccccc2n2cnc3ccc(NCCCN4CCN(CCCNc5c6ccccc6nc6cccc([N+](=O)[O-])c56)CC4)c1c32 [C-2041, 1-[3-(imidazo[4,5,1-de]-acridin-6-on-5-yl)aminopropyl]-4-[3′-(1′-nitroacridin-1-yl)-aminopropyl]piperazine]",7.60,7.62,7.41,7.16,7.66,7.27,7.49,7.09,7.68,"TGI [%] [100 − (ΔVT/ΔVC × 100] (BXPC 3; series 21, i.v., single 2 mg/kg, total 16 mg/kg, day 44): 81%; TGI [%] [100 − (ΔVT/ΔVC × 100] (BXPC 3; series 33, i.v., single 2 mg/kg, total 16 mg/kg, day 32): 48%; TGI [%] [100 − (ΔVT/ΔVC × 100] (MDA MB 231; series 34, i.v., single 4 mg/kg, total 32 mg/kg, day 32): 53%; TGI [%] [100 − (ΔVT/ΔVC × 100] (PANC 1; series 17, i.v., single 2 mg/kg, total 16 mg/kg, day 60): 76%; TGI [%] [100 − (ΔVT/ΔVC × 100] (PANC 1; series 27, i.v., single 2 mg/kg, total 16 mg/kg, day 33): 83%; TGI [%] [100 − (ΔVT/ΔVC × 100] (PANC 1; series 32, i.v., single 1 mg/kg, total 16 mg/kg, day 33): 82%; TGI [%] [100 − (ΔVT/ΔVC × 100] (DU 145): 61%; TGI [%] [100 − (ΔVT/ΔVC × 100] (Mia Pa Ca 2): 38* %; TGI [%] [100 − (ΔVT/ΔVC × 100] (AsPC 1): 29%"
"Cc1ccc([N+](=O)[O-])c2c(NCCCN3CCN(CCCNc4ccc5ncn6c7ccc(O)cc7c(=O)c4c56)CC3)c3ccccc3nc12 [C-2025, 1-[3-(8-hydroxy-imidazo[4,5,1-de]-acridin-6-on-5-yl)aminopropyl]-4-[3′-(4′-methyl-1′-nitroacridin-1-yl)-aminopropyl]piperazine]",7.29,7.38,7.42,6.46,7.17,6.45,7.17,6.61,7.77,"TGI [%] [100 − (ΔVT/ΔVC × 100] (MDA MB 231; series 19, i.v., single 5 mg/kg, total 40 mg/kg, day 39): 12%; TGI [%] [100 − (ΔVT/ΔVC × 100] (PANC 1; series 20, i.v., single 20 mg/kg, total 160 mg/kg, day 26, *at least half of animals did not survive): 61* %; TGI [%] [100 − (ΔVT/ΔVC × 100] (HCT 116): 4%; pEC50 (HT-29): 6.63; pEC50 (PC-3): 6.89; pEC50 (UM-UC-3): 7.46; pEC50 (H-460): 7.13"
